pEC50: −log10 of the molar value. Active and inactive are the calls of the source. The calls are words filed in the database; no cut-off is given here.
What was measured:
[1] = target: T1, Cannabinoid receptor 2 (Homo sapiens, UniProt P34972); experiment: Agonist activity at human CB2 receptor expressed in CHO cells assessed as induction of Ca2+ flux after 10 mins by Fluor-4 AM dye based assay relative to CP55940; format: functional, cell-based
[2] = target: Cannabinoid receptor 1 (Rattus norvegicus, UniProt P20272); experiment: Agonist activity at rat CB1 receptor expressed in mouse AtT20 cells by FLIPR membrane potential assay; format: cell-based
Chain of Cannabinoid receptor 1 (Rattus norvegicus, UniProt P20272) (P20272 whole entry): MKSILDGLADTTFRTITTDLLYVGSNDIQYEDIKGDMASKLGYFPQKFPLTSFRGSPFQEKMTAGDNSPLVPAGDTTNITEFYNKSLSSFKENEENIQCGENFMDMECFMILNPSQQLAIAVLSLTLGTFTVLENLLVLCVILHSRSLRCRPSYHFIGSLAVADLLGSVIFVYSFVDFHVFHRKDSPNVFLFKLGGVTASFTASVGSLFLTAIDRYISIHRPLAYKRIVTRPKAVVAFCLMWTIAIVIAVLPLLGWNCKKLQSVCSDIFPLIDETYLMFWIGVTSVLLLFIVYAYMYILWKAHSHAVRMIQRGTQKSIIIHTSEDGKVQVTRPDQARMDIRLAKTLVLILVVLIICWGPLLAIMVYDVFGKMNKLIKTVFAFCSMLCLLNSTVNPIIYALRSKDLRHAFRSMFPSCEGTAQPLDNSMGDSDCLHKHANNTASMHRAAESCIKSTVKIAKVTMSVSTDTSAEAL

[3] = target: T2, Cannabinoid receptor 1 (CB1) (Homo sapiens, UniProt P21554); experiment: Antagonist activity at human CB1 receptor expressed in CHO cells assessed as inhibition of CP55940-induced Ca2+ flux at 10 uM preincubated for 10 mins followed by agonist addition by Fluor-4 AM dye based assay; format: cell-based; details: CHO cells expressing human CB1 receptor
T2 sequence (P21554 whole entry): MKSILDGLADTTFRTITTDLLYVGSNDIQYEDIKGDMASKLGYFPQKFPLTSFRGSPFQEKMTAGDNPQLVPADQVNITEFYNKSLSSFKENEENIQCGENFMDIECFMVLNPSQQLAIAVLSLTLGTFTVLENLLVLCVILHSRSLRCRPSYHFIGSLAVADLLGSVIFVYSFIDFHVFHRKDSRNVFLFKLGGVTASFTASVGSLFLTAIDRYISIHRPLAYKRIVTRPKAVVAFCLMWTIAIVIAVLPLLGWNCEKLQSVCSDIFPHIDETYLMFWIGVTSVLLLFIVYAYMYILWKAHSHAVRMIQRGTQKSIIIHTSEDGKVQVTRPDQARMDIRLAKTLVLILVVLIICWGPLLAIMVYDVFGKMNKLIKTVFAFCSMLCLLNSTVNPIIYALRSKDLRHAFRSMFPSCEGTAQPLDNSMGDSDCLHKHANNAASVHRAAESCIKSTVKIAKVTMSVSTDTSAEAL

[4] = target: T1, Cannabinoid receptor 2; experiment: Agonist activity at human N-terminal HA-tagged CB2 receptor expressed in mouse AtT20 cells by FLIPR membrane potential assay; format: cell-based
[5] = target: T3, Cannabinoid receptor 1 (Homo sapiens, UniProt P21554); experiment: Agonist activity at human CB1 receptor expressed in CHO cells assessed as induction of Ca2+ flux after 10 mins by Fluor-4 AM dye based assay; format: cell-based
T3 sequence (P21554 whole entry): as above

[6] = target: T1, Cannabinoid receptor 2; experiment: Agonist activity at human CB2 receptor expressed in CHO cells assessed as induction of Ca2+ flux after 10 mins by Fluor-4 AM dye based assay; format: functional, cell-based
[7] = target: T1, Cannabinoid receptor 2; experiment: Antagonist activity at human CB2 receptor expressed in CHO cells assessed as inhibition of CP55940-induced Ca2+ flux at 10 uM preincubated for 10 mins followed by agonist addition by Fluor-4 AM dye based assay; format: functional, cell-based
[8] = target: T2, Cannabinoid receptor 1 (CB1); experiment: Agonist activity at human CB1 receptor expressed in CHO cells assessed as induction of Ca2+ flux after 10 mins by Fluor-4 AM dye based assay relative to CP55940; format: cell-based; details: CHO cells expressing human CB1 receptor
[9] = target: T3, Cannabinoid receptor 1; experiment: Agonist activity at human CB1 receptor expressed in CHO cells assessed as induction of Ca2+ flux at 10 uM after 10 mins by Fluor-4 AM dye based assay; format: cell-based
[10] = system: Mus musculus; experiment: In vivo partial agonist activity at CB2 receptor in EAE C57BL/6 mouse model assessed as reduction in clinical signs at 10 to 30 mg/kg, ip administered from day 3 after immunization with MOG until day 27; format: functional, organism-based
[11] = AUC (0 to infinity) in C57 mouse at 10 mg/kg, ip measured up to 2 hrs by LC-MS/MS analysis; format: ADME, organism-based; design: dose 10 mg/kg, time infinity, route intraperitoneal; details: in vivo
[12] = system: Mus musculus; experiment: AUMC (0 to infinity) in C57 mouse at 10 mg/kg, ip measured up to 2 hrs by LC-MS/MS analysis; format: ADME, organism-based; details: in vivo
[13] = system: Mus musculus; experiment: In vivo partial agonist activity at CB2 receptor in EAE C57BL/6 mouse model assessed as reduction in leukocyte infiltration in white matter region at 10 to 30 mg/kg, ip administered from day 3 after immunization with MOG until day 19 by H and E staining based assay; format: functional, organism-based
[14] = Tmax in C57 mouse at 10 mg/kg, ip measured up to 2 hrs by LC-MS/MS analysis; format: ADME, organism-based; details: in vivo
[15] = Cmax in C57 mouse at 10 mg/kg, ip measured up to 2 hrs by LC-MS/MS analysis; format: ADME, organism-based; design: dose 10 mg/kg, route intraperitoneal; details: in vivo
[16] = target: T1, Cannabinoid receptor 2; experiment: Agonist activity at human CB2 receptor expressed in CHO cells assessed as inhibition of forskolin-induced cAMP accumulation preincubated for 20 mins followed by forskolin addition measured after 30 mins by HTRF assay; format: functional, cell-based
[17] = AUC (0 to t) in C57 mouse at 10 mg/kg, ip measured up to 2 hrs by LC-MS/MS analysis; format: ADME, organism-based; design: dose 10 mg/kg, time < 2 hr, route intraperitoneal; details: in vivo
[18] = system: Mus musculus; experiment: AUMC (0 to t) in C57 mouse at 10 mg/kg, ip measured up to 2 hrs by LC-MS/MS analysis; format: ADME, organism-based; details: in vivo
[19] = Ratio of Cmax in C57 mouse at 10 mg/kg, ip to EC50 for human CB2 receptor expressed in CHO cells assessed as induction of Ca2+ flux
[20] = Elimination rate constant in C57 mouse at 10 mg/kg, ip measured up to 2 hrs by LC-MS/MS analysis; format: ADME, organism-based; details: in vivo
[21] = system: Mus musculus; experiment: In vivo partial agonist activity at CB2 receptor in EAE C57BL/6 mouse model assessed as reduction in extensive demyelination in white matter at 10 to 30 mg/kg, ip administered from day 3 after immunization with MOG until day 19 by Luxol fast blue staining based assay; format: functional, organism-based
[22] = MRT in C57 mouse at 10 mg/kg, ip measured up to 2 hrs by LC-MS/MS analysis; format: ADME, organism-based; details: in vivo
[23] = Half life in C57 mouse at 10 mg/kg, ip measured up to 2 hrs by LC-MS/MS analysis; format: ADME, organism-based; details: in vivo

T1 sequence (P34972 whole entry): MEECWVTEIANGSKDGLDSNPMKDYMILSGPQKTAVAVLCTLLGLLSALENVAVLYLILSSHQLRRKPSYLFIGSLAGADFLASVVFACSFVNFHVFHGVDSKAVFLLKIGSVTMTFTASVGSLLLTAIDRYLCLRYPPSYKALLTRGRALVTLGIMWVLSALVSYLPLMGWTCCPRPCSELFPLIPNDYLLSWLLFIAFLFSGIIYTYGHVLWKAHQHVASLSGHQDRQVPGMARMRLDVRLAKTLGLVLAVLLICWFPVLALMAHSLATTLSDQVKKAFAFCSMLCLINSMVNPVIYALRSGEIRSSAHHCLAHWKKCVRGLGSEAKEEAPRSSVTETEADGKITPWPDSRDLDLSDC

Structure (SMILES): CCCCCn1cc(C(=O)NC23CC4CC(CC(C4)C2)C3)c2ccccc21
- Emax [1]: 66.3%
- pEC50 [2]: 7.47
- inhibition at 10 min, 10 µM [3]: < 50%
- pEC50 [4]: 7.54
- pEC50 [5]: 7.41
- pEC50 [6]: 7.23
- inhibition [7]: < 50%
- Emax at 10 min [8]: 68.3%

Structure (SMILES): O=C(NC12CC3CC(CC(C3)C1)C2)c1cc2ccccc2n1CCCCO
- Activity [9]: < 50%
- Emax [1]: 85%
- Activity [10]: Active
- inhibition at 10 min, 10 µM [3]: < 50%
- AUC(0-inf) [11]: 428 ng·h/mL
- AUMC [12]: 637 hr.hr.ng/ml
- Activity [13]: Active
- Tmax [14]: 0.25 h
- Cmax [15]: 350 ng/mL
- pEC50 [16]: 6.85
- AUC(0-t) at 2 h [17]: 317 ng·h/mL
- pEC50 [6]: 6.92
- AUMCt [18]: 248 hr.hr.ng/ml
- Ratio [19]: 8
- inhibition [7]: < 50%
- k el at 2 h [20]: 0.000189 s⁻¹
- Activity [21]: Active
- MRT [22]: 1.51 h
- half-life [23]: 1.04 h
